Results taken from US20120165319A1, “INHIBITORS OF INTERLEUKIN-1 BETA CONVERTING ENZYME” (VERTEX PHARMACEUTICALS INCORPORATED, priority 1995, published 2012).
Where a name gives a salt, the structure may show the parent alone.

What was measured:
IL-1β, human whole blood = assay: Whole blood assay for IL-1β production; assay type: cell-based; conditions: Homo sapiens, Table 17; read-out: Whole human blood IC50
Protocol: The whole blood assay is a simple method for measuring the production of IL-1b (or other cytokines) and the activity of potential inhibitors. The complexity of this assay system, with its full complement of lymphoid and inflammatory cell types, spectrum of plasma proteins and red blood cells is an ideal in vitro representation of human in vivo physiologic conditions.
Pyrogen-free syringes (˜30 cc) Pyrogen-free sterile vacuum tubes containing lyophilized Na2EDTA (4.5 mg/10 ml tube) Human whole blood sample (˜30-50 cc) 1.5 ml eppendorf tubes Test compound stock solutions (˜25 mM in DMSO or other solvent) Endotoxin-free sodium chloride solution (0.9%) and HBSS Lipopolysaccharide (Sigma; Cat. # L-3012) stock solution at 1 mg/ml in HBSS
IL-1β ELISA Kit (R & D Systems; Cat # DLB50)
TNFα ELISA Kit (R & D Systems; Cat # DTA50)
Whole Blood Assay Experimental Procedure:
Set incubator or water bath at 30° C. Aliquot 0.25 ml of blood into 1.5 ml eppendorf tubes. Note: be sure to invert the whole blood sample tubes after every two aliquots. Differences in replicates may result if the cells sediment and are not uniformly suspended. Use of a positive displacement pipette will also minimize differences between replicate aliquots.
Prepare drug dilutions in sterile pyrogen-free saline by serial dilution. A dilution series which brackets the apparent Ki for a test compound determined in an ICE inhibition assay is generally used for the primary compound screen.
Add 25 μl test compound dilution or vehicle control and gently mix the sample. Then add 5.0 μl LPS solution (250 ng/ml stocked prepared fresh: 5.0 ng/ml final concentration LPS), and mix again. Incubate the tubes at 30° C. in a water bath for 16-18 hr with occasional mixing. Alternatively, the tubes can be placed in a rotator set at 4 rpm for the same incubation period. This assay should be set up in duplicate or triplicate with the following controls: negative control—no LPS; positive control—no test inhibitor; vehicle control—the highest concentration of DMSO or compound solvent used in the experiment. Additional saline is added to all control tubes to normalize volumes for both control and experimental whole blood test samples
After the incubation period, whole blood samples are centrifuged for 10 minutes at ˜2000 rpm in the microfuge, plasma is transferred to a fresh microfuge tube and centrifuged at 1000×g to pellet residual platelets if necessary. Plasma samples may be stored frozen at −70° C. prior to assay for cytokine levels by ELISA.
We have used R & D Systems (614 McKinley Place N.E. Minneapolis, Minn. 55413) Quantikine kits for measurement of IL-1β and TNF-α. The assays are performed according to the manufacturer's directions.
We have observed IL-1β levels of ˜1-5 ng/ml in positive controls among a range of individuals. A 1:200 dilution of plasma for all samples has been sufficient in our experiments for ELISA results to fall on the linear range of the ELISA standard curves. It may be necessary to optimize standard dilutions if you observe differences in the whole blood assay. Nerad, J. L. et al., J. Leukocyte Biol., 52, pp. 687-692 (1992).

[1] = test system: IL-1β, human peripheral blood mononuclear cells (PBMC); assay: PBMC cell assay: IL-1β assay with human PBMC or enriched adherent mononuclear cells, LPS-stimulated; assay type: cell-based; conditions: Homo sapiens, PBMC
From the text: IL-1β Assay with a Mixed Population of Human Peripheral Blood Mononuclear Cells (PBMC) or Enriched Adherent Mononuclear Cells
Processing of pre-IL-1β by ICE can be measured in cell culture using a variety of cell sources. Human PBMC obtained from healthy donors provides a mixed population of lymphocyte subtypes and mononuclear cells that produce a spectrum of interleukins and cytokines in response to many classes of physiological stimulators. Adherent mononuclear cells from PBMC provides an enriched source of normal monocytes for selective studies of cytokine production by activated cells.
An initial dilution series of test compound in DMSO or ethanol is prepared, with a subsequent dilution into RPMI-10% FBS media (containing 2 mM L-glutamine, 10 mM HEPES, 50 U and 50 ug/ml pen/strep) respectively to yield drugs at 4× the final test concentration containing 0.4% DMSO or 0.4% ethanol. The final concentration of DMSO is 0.1% for all drug dilutions. A concentration titration which brackets the apparent Ki for a test compound determined in an ICE inhibition assay is generally used for the primary compound screen.
Generally 5-6 compound dilutions are tested and the cellular component of the assay is performed in duplicate, with duplicate ELISA determinations on each cell culture supernatant.
PBMC Isolation and IL-1 Assay:
Buffy coat cells isolated from one pint human blood (yielding 40-45 ml final volume plasma plus cells) are diluted with media to 80 ml and LeukoPREP separation tubes (Becton Dickinson) are each overlaid with 10 ml of cell suspension. After 15 min centrifugation at 1500-1800×g, the plasma/media layer is aspirated and then the mononuclear cell layer is collected with a Pasteur pipette and transferred to a 15 ml conical centrifuge tube (Corning). Media is added to bring the volume to 15 ml, gently mix the cells by inversion and centrifuge at 300×g for 15 min. Resuspend the PBMC pellet in a small volume of media, count cells and adjust to 6×10^6 cells/ml.
For the cellular assay, 1.0 ml of the cell suspension is added to each well of a 24-well flat bottom tissue culture plate (Corning), 0.5 ml test compound dilution and 0.5 ml LPS solution (Sigma #L-3012; 20 ng/ml solution prepared in complete RPMI media; final LPS concentration 5 ng/ml). The 0.5 ml additions of test compound and LPS are usually sufficient to mix the contents of the wells. Three control mixtures are run per experiment, with either LPS alone, solvent vehicle control, and/or additional media to adjust the final culture volume to 2.0 ml. The cell cultures are incubated for 16-18 hr at 37° C. in the presence of 5% CO2.
At the end of the incubation period, cells are harvested and transferred to 15 ml conical centrifuge tubes. After centrifugation for 10 min at 200×g, supernatants are harvested and transferred to 1.5 ml Eppendorf tubes. It may be noted that the cell pellet may be utilized for a biochemical evaluation of pre-IL-1β and/or mature IL-1β content in cytosol extracts by western blotting or ELISA with pre-IL-1β specific antisera.
Isolation of Adherent Mononuclear Cells:
PBMC are isolated and prepared as described above. Media (1.0 ml) is first added to wells followed by 0.5 ml of the PBMC suspension. After a one hour incubation, plates are gently shaken and nonadherent cells aspirated from each well. Wells are then gently washed three times with 1.0 ml of media and final resuspended in 1.0 ml media. The enrichment for adherent cells generally yields 2.5−3.0×10^5 cells per well. The addition of test compounds, LPS, cell incubation conditions and processing of supernatants proceeds as described above.
We have used Quantikine kits (R&D Systems) for measurement of mature IL-1β. Assays are performed according to the manufacturer's directions. Mature IL-1β levels of about 1-3 ng/ml in both PBMC and adherent mononuclear cell positive controls are observed. […]

ICE = target: T1, ICE (Homo sapiens, UniProt P29466); assay: Enzyme assay with UV-visible substrate (visible ICE assay, Succinyl-Tyr-Val-Ala-Asp-pNitroanilide); assay type: biochemical
T1 sequence (P29466 120-297 limits assumed): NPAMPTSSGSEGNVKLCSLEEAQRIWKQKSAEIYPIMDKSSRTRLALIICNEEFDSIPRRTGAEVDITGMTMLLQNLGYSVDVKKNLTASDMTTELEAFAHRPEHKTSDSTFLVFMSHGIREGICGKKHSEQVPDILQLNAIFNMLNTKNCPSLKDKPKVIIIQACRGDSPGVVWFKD
T1 sequence (P29466 317-404 limits assumed): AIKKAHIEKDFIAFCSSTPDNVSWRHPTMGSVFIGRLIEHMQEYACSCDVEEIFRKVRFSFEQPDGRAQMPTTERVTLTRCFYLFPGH
Outline: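 Colorimetric caspase-1 activity: 15 min enzyme-inhibitor preincubation (RT), then Suc-Tyr-Val-Ala-Asp-pNA; 405-603 nm kinetics, 20 min, 37° C. Ki from rate fitting.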

[2] = * = values obtained upon reassay

| SMILES | IC50 (IL-1β, human whole blood) [nM] | IC50 [1, 2] [nM] | Ki (ICE; Table 5) [nM] | further results |
| --- | --- | --- | --- | --- |
| CC(=O)N1C[C@H](NC(=O)c2cc(C)c(O)c(C)c2)C(=O)N(CC(=O)N[C@H]2CC(=O)OC2OCc2ccccc2)c2ccccc21 (mixture of isomers) [Compound 670, (3S)-2-Oxo-3-(3,5-dimethyl-4-hydroxybenzoyl)amino-5-acetyl-N-[(2RS,3S)-benzyloxy-5-oxo-tetrahydrofuran-3-yl]-2,3,4,5-tetrahydro-1H-1,5-benzodiazepine-1-acetamide] | 4500 | – | – | – |
| CC(=O)OCC(=O)N1C[C@H](NC(=O)c2ccccc2)C(=O)N(CC(=O)N[C@H]2CC(=O)OC2OCc2ccccc2)c2ccccc21 (mixture of isomers) [Compound 682, (3S)-2-Oxo-3-benzoylamino-5-(2-acetoxy)acetyl-N-[(2RS,3S)-benzyloxy-5-oxo-tetrahydrofuran-3-yl]-2,3,4,5-tetrahydro-1H-1,5-benzodiazepine-1-acetamide] | 1300 | – | – | – |
| COCC(=O)N1C[C@H](NC(=O)c2cc(Cl)c(O)c(Cl)c2)C(=O)N(CC(=O)N[C@H]2CC(=O)OC2OCc2ccccc2)c2ccccc21 (mixture of isomers) [Compound 688a, (3S)-2-Oxo-3-(3,5-dichloro-4-hydroxybenzoyl)amino-5-methoxyacetyl-N-[(2RS,3S)-benzyloxy-5-oxo-tetrahydrofuran-3-yl]-2,3,4,5-tetrahydro-1H-1,5-benzodiazepine-1-acetamide] | 3000 | – | – | – |
| COCC(=O)N1C[C@H](NC(=O)c2cc(C)c(O)c(C)c2)C(=O)N(CC(=O)N[C@H]2CC(=O)OC2OCc2ccccc2)c2ccccc21 (mixture of isomers) [Compound 688b, (3S)-2-Oxo-3-(3,5-dimethyl-4-hydroxybenzoyl)amino-5-methoxyacetyl-N-[(2RS,3S)-benzyloxy-5-oxo-tetrahydrofuran-3-yl]-2,3,4,5-tetrahydro-1H-1,5-benzodiazepine-1-acetamide] | 1300 | – | – | – |
| Cc1cc(C(=O)N[C@H]2CN(C(=O)CO)c3ccccc3N(CC(=O)N[C@H]3CC(=O)OC3OCc3ccccc3)C2=O)cc(C)c1O (mixture of isomers) [Compound 690a, (3S)-2-Oxo-3-(3,5-dimethyl-4-hydroxybenzoyl)amino-5-hydroxyacetyl-N-[(2RS,3S)-benzyloxy-5-oxo-tetrahydrofuran-3-yl]-2,3,4,5-tetrahydro-1H-1,5-benzodiazepine-1-acetamide] | 1600 | – | – | – |
| O=C[C@H](CC(=O)O)NC(=O)CN1C(=O)[C@@H](NC(=O)c2ccccc2)CN(C(=O)Cc2ccncc2)c2ccccc21 [Compound 605s, (3S)-3-[(3S)-2-Oxo-3-benzoylamino-5-(4-pyridylacetyl)-2,3,4,5-tetrahydro-1H-1,5-benzodiazepin-1-acetylamino]-4-oxo-butyric acid] | – | 6000 | 150 | – |
| O=CC(CC(=O)O)NC(=O)CN1C(=O)[C@@H](NCc2ccccc2)CN(C(=O)CCc2ccccc2)c2ccccc21 (stereo partly drawn) [Compound 605v, (3S)3-[(3S)2-Oxo-3-benzylamino-5-(3-phenylpropionyl)-2,3,4,5-tetrahydro-1H-1,5-benzodiazepin-1-acetylamino]-4-oxo-butyric acid trifluoroacetic acid salt] | – | > 30000 | 1100 | – |
| O=C(O)C[C@H](NC(=O)CN1C(=O)[C@@H](NC(=O)CCc2ccccc2)CN(C(=O)CCc2ccccc2)c2ccccc21)C(=O)c1nc2cc(Cl)cc(Cl)c2o1 [Compound 609a, (3S)-3-[(3S)-2-Oxo-3-(3-phenylpropionylamino)-5-(3-phenylpropionyl)-2,3,4,5-tetrahydro-1H-1,5-benzodiazepin-1-acetylamino]-4-(5,7-dichlorobenzoxazol-2-yl)-4-oxo-butyric acid] | – | > 30000 | 114 | – |
| CC(=O)N1C[C@H](NC(=O)c2ccccc2)C(=O)N(CC(=O)N[C@@H](CC(=O)O)C(=O)c2nc3cc(Cl)cc(Cl)c3o2)c2ccccc21 [Compound 609b, (3S)-3-[(3S)-2-Oxo-3-benzoylamino-5-acetyl-2,3,4,5-tetrahydro-1H-1,5-benzodiazepin-1-acetylamino]-4-(5,7-dichlorobenzoxazol-2-yl)-4-oxo-butyric acid] | – | > 20000 | 27 | – |
| CNCC(=O)N1C[C@H](NC(=O)c2cccc3ccccc23)C(=O)N(CC(=O)N[C@H](C=O)CC(=O)O)c2ccccc21 [Compound 650, (3S)-3-[(3S)-2-Oxo-3-(1-naphthoyl)amino-5-(2-methylamino)acetyl-2,3,4,5-tetrahydro-1H-1,5-benzodiazepine-1-acetylamino]-4-oxo-butyric acid] | – | – | – | IC50 ([1]; Table 17): 4000 nM; Ki (ICE; Table 17): 550 nM |
